Patent publication US8389513B2, “2-amino-5,5-difluoro-5,6-dihydro-4H-[1,3]oxazin-4-yl)-phenyl]-amides” (Hoffmann-La Roche Inc., priority 2009, dated 2013)

What was measured:
[1] = target: T1, CYP2C9 (Homo sapiens, UniProt P11712); assay: CYP inhibition assay, CYP2C9; format: in vitro ADME; conditions: human liver microsomes, diclofenac; read-out: CYP IC50 2C9
T1 construct: 0.2 mg/ml pooled human liver microsomes; from tissue; host or cells: pooled human liver microsomes
Description: Inhibition of cytochromes P450 (CYPs) 2C9, 2D6 and 3A4 was assessed using human liver microsomes and CYP-selective substrate metabolism reactions. 50 μl incubations were made up containing (finally) 0.2 mg/ml pooled human liver microsomes, 5 μM substrate (diclofenac for CYP2C9 [4′ hydroxylase], dextromethorphan for CYP2D6 [O-demethylase] or midazolam for CYP3A4 [1′ hydroxylase]), 0.25 μL DMSO containing test inhibitor and NADPH regenerating system. […] Incubations were prewarmed to 37° C. for 10 minutes before initiation by addition of NADPH regenerating system. Incubations were quenched after 5 minutes (20 minutes for dextromethorphan) by addition of 50 μl cold acetonitrile containing 20 ng/ml 4-OH-diclofenac-13C6, 20 ng/mL dextrorphan-D3 and 20 ng/mL 1-OH-midazolam-D4. Quenched incubates were stored at −20° C. for at least 1 hour before centrifugation (20,000×g, 20 minutes). Supernatants were removed and diluted 1:1 with water prior to analysis using a RapidFire sample injector system and API4000 mass spectrometer. Peak areas for substrate, metabolite and stable-labelled metabolite standard were determined using MS/MS. The peak area ratios between the metabolite generated by the enzymatic reaction and the internal standard were used in subsequent calculations. The percentage of (DMSO) control activity was calculated for each incubate and IC50 values estimated by non-linear regression. Sulfaphenazole, quinidine or ketoconazole were tested in each CYP2C9, CYP2D6 or CYP3A4 inhibition experiment, respectively, to ensure assay sensitivity and reproducibility.

[2] = in vivo effect; conditions: po; % of control @ 30 mg/kg p.o.
[3] = target: T2, BACE2 (Rattus norvegicus, UniProt Q6IE75); assay: Assay for BACE inhibition by measuring cellular TMEM27 cleavage; format: cell-based; conditions: INS-TMEM27 cells (INS1e-derived); shed TMEM27 by ELISA; read-out: BACE2 cell act. IC50
T2 construct: endogenous cellular BACE2 in the Ins1e rat cell line; endogenous in cells; host or cells: INS-TMEM27 (INS1e-derived rat cell line with TetOn-inducible full-length hTMEM27)
T2 sequence (Q6IE75 63-514): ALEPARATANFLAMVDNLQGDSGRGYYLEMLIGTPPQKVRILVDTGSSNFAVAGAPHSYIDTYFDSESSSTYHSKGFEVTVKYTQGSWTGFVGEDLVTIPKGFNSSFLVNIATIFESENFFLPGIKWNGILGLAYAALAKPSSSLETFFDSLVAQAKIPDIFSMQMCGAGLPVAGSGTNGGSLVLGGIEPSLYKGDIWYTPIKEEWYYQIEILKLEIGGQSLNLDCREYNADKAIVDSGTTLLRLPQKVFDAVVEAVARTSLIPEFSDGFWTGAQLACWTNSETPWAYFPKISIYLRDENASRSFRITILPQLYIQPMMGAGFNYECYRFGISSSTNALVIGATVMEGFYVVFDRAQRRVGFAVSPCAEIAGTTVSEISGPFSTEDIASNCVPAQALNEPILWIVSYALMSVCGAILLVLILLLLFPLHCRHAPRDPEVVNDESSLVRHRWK
How it was run: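 Ins1e-derived INS-TMEM27 rat cells with doxycycline-inducible full-length human TMEM27; inhibitor added 2 h before doxycycline (500 ng/ml final), then 46 h at 37 °C. Shed TMEM27 in supernatant quantified by sandwich ELISA with anti-human-TMEM27 antibodies; EC50 from curve fit across inhibitor concentrations.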

[4] = target: T3, cathepsin D (from human liver) (Homo sapiens, UniProt P07339); assay: Cathepsin D fluorescent substrate kinetic assay; format: biochemical; conditions: pH 5.5
T3 construct: cathepsin D (from human liver, Calbiochem); purchased Calbiochem; host or cells: human liver
T3 sequence (P07339 65-412): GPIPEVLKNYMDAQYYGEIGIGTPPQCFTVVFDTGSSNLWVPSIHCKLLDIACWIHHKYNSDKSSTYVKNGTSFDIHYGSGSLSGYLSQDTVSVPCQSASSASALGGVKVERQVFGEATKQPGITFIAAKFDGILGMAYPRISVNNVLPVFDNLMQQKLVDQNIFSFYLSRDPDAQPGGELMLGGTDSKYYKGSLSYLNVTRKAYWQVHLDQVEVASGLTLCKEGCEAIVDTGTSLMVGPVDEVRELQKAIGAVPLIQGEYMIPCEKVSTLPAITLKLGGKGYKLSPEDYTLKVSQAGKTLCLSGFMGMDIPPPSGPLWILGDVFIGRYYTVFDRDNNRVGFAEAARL
Description: Cathepsin D and Cathepsin E Fluorescent Substrate Kinetic Assays
The MR121 fluorescence assays described below are based on the fact that MR121 forms a non-fluorescent ground state complex with tryptophan. In solution this formation occurs at millimolar concentrations of tryptophan. The mechanism can be used to design a generic biochemical assay for proteases. A substrate peptide is labeled at the N-terminus with tryptophan and at the C-terminus with the fluorophore MR121 (for cathepsin D the 10 amino acid peptide […]-MR121 was used; for cathepsin E, MR121-[…] was used). In absence of protease activity, the substrates remain intact and the MR121 fluorescence is reduced by the high local Trp-concentration. If the substrates are cleaved by the enzymes the MR121 fluorescence is recovered.
The fluorescent substrate cathepsin D and cathepsin E kinetic assays were performed at room temperature in 384-well microtiter plates (black with clear flat bottom, non binding surface plates from Corning) in a final volume of 51 μl. The test compounds were serially diluted in DMSO (15 concentrations, 1/3 dilution steps) and 1 μl of diluted compounds were mixed for 10 min with 40 μl of cathepsin D (from human liver, Calbiochem) diluted in assay buffer (100 mM sodium acetate, 0.05% BSA, pH 5.5; final concentration: 200 nM) or with 40 μl of recombinant human cathepsin E (R&D Systems) diluted in assay buffer (100 mM sodium acetate, 0.05% BSA, pH 4.5; final concentration: 0.01 nM). After addition of 10 μl of the cathepsin D substrate […]-MR121 diluted in cathepsin D assay buffer (final concentration: 300 nM) or 10 µl of the cathepsin E substrate MR121-[…] diluted in cathepsin E assay buffer (final concentration: 300 nM), the plates were strongly shaken for 2 minutes. The enzymatic reaction was followed in a plate: vision reader (Perkin Elmer) (excitation wavelength: 630 nm; emission: 695 nm) for at least 30 minutes in a kinetic measurement detecting an increase of MR121 fluorescence during the reaction time. The slope in the linear range of the kinetic was calculated and the IC50 of the test compounds were determined using a four parameter equation for curve fitting.

T1 sequence (P11712 whole entry): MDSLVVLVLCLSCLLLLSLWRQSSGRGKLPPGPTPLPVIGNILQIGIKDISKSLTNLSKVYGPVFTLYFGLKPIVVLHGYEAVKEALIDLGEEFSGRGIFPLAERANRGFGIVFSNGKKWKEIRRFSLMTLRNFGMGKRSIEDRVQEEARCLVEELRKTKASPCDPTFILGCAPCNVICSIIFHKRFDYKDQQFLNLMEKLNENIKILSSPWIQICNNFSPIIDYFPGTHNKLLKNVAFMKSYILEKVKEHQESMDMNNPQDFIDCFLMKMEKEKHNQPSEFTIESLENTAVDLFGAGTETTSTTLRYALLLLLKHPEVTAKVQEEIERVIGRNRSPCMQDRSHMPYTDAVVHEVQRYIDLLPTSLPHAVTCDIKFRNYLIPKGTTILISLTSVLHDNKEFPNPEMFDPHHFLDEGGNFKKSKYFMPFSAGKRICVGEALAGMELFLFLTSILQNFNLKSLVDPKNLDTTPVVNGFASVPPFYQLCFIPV

SMILES	IC50 [1] [nM]	IC50 [3] [nM]	IC50 [4] [nM]	response vs control in vivo at 30 mg/kg [2] [%]
C[C@]1(c2cc(NC(=O)c3ccc(Cl)cn3)ccc2F)N=C(N)OCC1(F)F [Example 1, 5-Chloro-pyridine-2-carboxylic acid [3-((R)-2-amino-5,5-difluoro-4-methyl-5,6-dihydro-4H-[1,3]oxazin-4-yl)-4-fluoro-phenyl]-amide]	> 10000	35	> 200000	< 50
C[C@]1(c2cc(NC(=O)c3ncc(C#N)cc3Cl)ccc2F)N=C(N)OCC1(F)F [Example 39, 3-Chloro-5-cyano-pyridine-2-carboxylic acid [3-((R)-2-amino-5,5-difluoro-4-methyl-5,6-dihydro-4H-[1,3]oxazin-4-yl)-4-fluoro-phenyl]-amide]	> 10000	224	> 200000	< 50
C[C@]1(c2cc(NC(=O)c3ncc(C(F)(F)F)cc3Cl)ccc2F)N=C(N)OCC1(F)F [Example 5, 3-Chloro-5-trifluoromethyl-pyridine-2-carboxylic acid [3-((R)-2-amino-5,5-difluoro-4-methyl-5,6-dihydro-4H-[1,3]oxazin-4-yl)-4-fluoro-phenyl]-amide]	–	15	> 200000	< 50
C[C@]1(c2cc(NC(=O)c3ncc(Cl)cc3Cl)ccc2F)N=C(N)OCC1(F)F [Example 8, 3,5-Dichloro-pyridine-2-carboxylic acid [3-((R)-2-amino-5,5-difluoro-4-methyl-5,6-dihydro-4H-[1,3]oxazin-4-yl)-4-fluoro-phenyl]-amide]	> 10000	71	> 170000	< 50

Second part, led by results:

IC50 [1] [nM]	IC50 [3] [nM]	IC50 [4] [nM]	SMILES	response vs control in vivo at 30 mg/kg [2] [%]
> 10000	175	> 200000	CC1(C)OC(N)=N[C@](C)(c2cc(NC(=O)c3ncc(C#N)cc3Cl)ccc2F)C1(F)F [Example 22, 3-Chloro-5-cyano-pyridine-2-carboxylic acid [3-((R)-2-amino-5,5-difluoro-4,6,6-trimethyl-5,6-dihydro-4H-[1,3]oxazin-4-yl)-4-fluoro-phenyl]-amide]	< 50
> 10000	210	> 200000	CC1(C)OC(N)=N[C@](C)(c2cc(NC(=O)c3ccc(C#N)cn3)ccc2F)C1(F)F [Example 21, 5-Cyano-pyridine-2-carboxylic acid [3-((R)-2-amino-5,5-difluoro-4,6,6-trimethyl-5,6-dihydro-4H-[1,3]oxazin-4-yl)-4-fluoro-phenyl]-amide]	< 50
1000 to 10000	1270	> 200000	CC1(C)OC(N)=N[C@](C)(c2cc(NC(=O)c3ncc(C(F)(F)F)cc3Cl)ccc2F)C1(F)F [Example 20, 3-Chloro-5-trifluoromethyl-pyridine-2-carboxylic acid [3-((R)-2-amino-5,5-difluoro-4,6,6-trimethyl-5,6-dihydro-4H-[1,3]oxazin-4-yl)-4-fluoro-phenyl]-amide]	< 50
